Values joined by “and” are separate entries in the source; they are usually repeats but may differ in a detail not shown here. Equal values may be shown once.
What was measured:
Type in all cases: biochemical
[1] = biological target: human recombinant core 1 β1,3-Gal-transferase (C1GalT) (Homo sapiens, UniProt Q9NS00); assay: C1GalT glycosyltransferase assay; settings: for C1GalT activity (%): acceptor substrate 0.5 mM, 0.5 mM GalNAcα-Bn set to 100%
[2] = biological target: T1, human recombinant core 3 β1,3-GlcNAc-transferase (C3GnT) (Homo sapiens, UniProt Q6ZMB0); assay: C3GnT glycosyltransferase assay; settings: for C3GnT activity (%): acceptor substrate 0.5 mM, 0.5 mM GalNAcα-Bn set to 100%
T1 sequence (Q6ZMB0 32-384 limits assumed): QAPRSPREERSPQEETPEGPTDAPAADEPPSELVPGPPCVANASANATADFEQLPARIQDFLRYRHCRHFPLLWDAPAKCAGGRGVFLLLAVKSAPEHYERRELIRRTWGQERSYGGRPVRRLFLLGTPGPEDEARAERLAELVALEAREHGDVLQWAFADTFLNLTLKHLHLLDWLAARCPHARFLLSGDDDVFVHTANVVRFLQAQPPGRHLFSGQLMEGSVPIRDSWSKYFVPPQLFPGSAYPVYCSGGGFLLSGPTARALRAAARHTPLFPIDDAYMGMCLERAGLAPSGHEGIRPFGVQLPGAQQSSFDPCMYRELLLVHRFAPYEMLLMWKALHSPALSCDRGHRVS

[3] = biological target: T2, human recombinant core 2 β1,6-GlcNAc-transferase (C2GnT1) (Homo sapiens, UniProt Q02742); assay: C2GnT1 glycosyltransferase assay
T2 sequence (Q02742 33-428 limits assumed): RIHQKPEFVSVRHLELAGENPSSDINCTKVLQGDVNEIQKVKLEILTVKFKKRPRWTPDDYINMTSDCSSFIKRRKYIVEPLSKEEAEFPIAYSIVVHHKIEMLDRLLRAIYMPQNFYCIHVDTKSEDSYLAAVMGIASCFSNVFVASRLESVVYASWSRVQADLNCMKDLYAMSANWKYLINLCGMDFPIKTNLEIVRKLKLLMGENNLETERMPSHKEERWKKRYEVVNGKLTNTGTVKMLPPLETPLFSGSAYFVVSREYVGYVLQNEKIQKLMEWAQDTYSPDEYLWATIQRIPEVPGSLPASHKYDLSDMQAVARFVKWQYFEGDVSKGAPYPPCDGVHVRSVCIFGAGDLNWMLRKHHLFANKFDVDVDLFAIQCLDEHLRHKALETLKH

[4] = biological target: T3, human recombinant core 2/4 β1,6-GlcNAc-transferase (C2GnT2) (Homo sapiens, UniProt O95395)
T3 sequence (O95395 27-438): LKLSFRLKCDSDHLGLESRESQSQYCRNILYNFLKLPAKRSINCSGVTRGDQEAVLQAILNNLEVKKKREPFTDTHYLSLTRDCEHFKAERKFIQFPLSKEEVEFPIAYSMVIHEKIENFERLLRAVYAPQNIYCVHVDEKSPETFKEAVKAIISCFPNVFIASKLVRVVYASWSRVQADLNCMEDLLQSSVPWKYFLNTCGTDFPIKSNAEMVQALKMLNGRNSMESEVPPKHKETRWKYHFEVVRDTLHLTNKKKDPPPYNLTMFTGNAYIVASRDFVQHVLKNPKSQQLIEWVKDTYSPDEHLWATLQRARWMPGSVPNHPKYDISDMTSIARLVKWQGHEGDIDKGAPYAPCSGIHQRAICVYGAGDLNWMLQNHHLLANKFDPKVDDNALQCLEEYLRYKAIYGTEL

[5] = acceptor substrate 0.5 mM, 0.5 mM Galβ1–3GalNAcα-pnp set to 100%

human recombinant core 1 β1,3-Gal-transferase (C1GalT), sequence (Q9NS00 30-363 limits assumed): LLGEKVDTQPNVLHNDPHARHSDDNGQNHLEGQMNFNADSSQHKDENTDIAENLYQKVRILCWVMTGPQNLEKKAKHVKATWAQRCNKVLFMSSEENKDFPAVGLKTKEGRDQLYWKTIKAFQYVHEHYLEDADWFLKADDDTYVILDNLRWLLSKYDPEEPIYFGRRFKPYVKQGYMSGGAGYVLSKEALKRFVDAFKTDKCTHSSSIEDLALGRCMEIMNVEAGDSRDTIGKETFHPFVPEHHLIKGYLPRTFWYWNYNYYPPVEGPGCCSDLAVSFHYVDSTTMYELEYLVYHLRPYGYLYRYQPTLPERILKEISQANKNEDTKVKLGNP

Molecule | C1GalT activity (%) [1] | C3GnT activity (%) [2] | other results
OC[C@H]1O[C@H](OCc2ccccc2)C[C@@H](O)[C@H]1O [2-Deoxy-Galα-Bn] | <1% | <1% | 
CCC(=O)N[C@H]1[C@@H](OCc2ccccc2)O[C@H](CO)[C@H](O)[C@@H]1O [2-N-Propionyl-GalNα-Bn] | 60% | 62% | 
CCO[C@H]1[C@@H](O)[C@@H](CO)O[C@H](OCc2ccccc2)[C@@H]1NC(C)=O [3-O-Ethyl-GalNAcα-Bn] | <1% | <1% | 
CCCO[C@H]1[C@@H](O)[C@@H](CO)O[C@H](OCc2ccccc2)[C@@H]1NC(C)=O [3-O-Propyl-GalNAcα-Bn] | <1% | <1% | 
CC(=O)N[C@H]1[C@@H](OCc2ccccc2)O[C@H](CO)C[C@@H]1O [4-Deoxy-GalNAcα-Bn] | <1% | <1% | 
CC(=O)N[C@H]1[C@@H](OCc2ccccc2)O[C@H](CO[C@@H]2O[C@H](CO)[C@@H](F)[C@H](O)[C@H]2NC(C)=O)[C@H](O)[C@@H]1O [4-F-4-Deoxy-GlcNAcβ1–6-GalNAcα-Bn] | 88% | <1% | 
CC(=O)N[C@H]1[C@@H](OCc2ccccc2)O[C@H](C)[C@H](O)[C@@H]1O [6-Deoxy-GalNAcα-Bn] | 68% | <1% | 
CC(=O)N[C@H]1[C@@H](OCc2ccccc2)O[C@H](COCCCC2CO2)[C@H](O)[C@@H]1O (stereo partly drawn) [6-O-(4,5-Anhydro)pentyl-GalNAcα-Bn] | 191% | <1% | 
CC(=O)N[C@H]1C(O)O[C@H](CO)[C@H](O)[C@@H]1O (stereo partly drawn) [GalNAc, reference compound] | 6% | <1% | 
CC(=O)NC1C(OP(=O)(O)OP(=O)(O)OCCCCCCCCCCCOc2ccccc2)OC(CO)C(O)C1O (stereo not drawn) [GalNAcα-O-PO3-PO3-(CH2)11-O-Ph] | <1% | <1% | 
C=C(C)C1CC=C(CO[C@H]2O[C@H](CO)[C@H](O)[C@H](O)[C@H]2NC(C)=O)CC1 (stereo partly drawn) [GalNAcα-perillyl] | 102% | 153% | Vmax ([2]; C3GnT, acceptor substrate): 0.4 µmol/h/mg and 0.40 µmol/h/mg; Km ([2]; C3GnT, apparent KM for acceptor substrate): 300 µM
CC(=O)N[C@H]1[C@@H](Oc2ccccc2)O[C@H](CO)[C@H](O)[C@@H]1O [GalNAcα-phenyl] | 181% | 37% | 
CC(=O)N[C@H]1[C@@H](Oc2ccc([N+](=O)[O-])cc2)O[C@H](CO)[C@H](O)[C@@H]1O [GalNAcα-pnp] | 204% | 88% | 
CC(=O)N[C@H]1[C@H](OCc2ccccc2)O[C@H](CO)[C@@H](O[C@@H]2O[C@H](CO)[C@H](O)[C@H](O)[C@H]2NC(C)=O)[C@@H]1O [GalNAcβ1–4GlcNAcβ-Bn] | <1% | <1% | 
CC(=O)N[C@H]1[C@H](OC[C@H]2O[C@H](Oc3ccccc3[N+](=O)[O-])[C@H](NC(C)=O)[C@@H](O)[C@H]2O)O[C@H](CO)[C@@H](O[C@@H]2O[C@H](CO)[C@H](O)[C@H](O)[C@H]2O)[C@@H]1O [Galβ1–4GlcNAcβ1–6GalNAcα-onp] | 38% | <1% | 
CC(=O)N[C@H]1[C@H](OC[C@H]2O[C@H](Oc3ccc4ccccc4c3)[C@H](O)[C@@H](O)[C@H]2O)O[C@H](CO)[C@@H](O[C@@H]2O[C@H](CO)[C@H](O)[C@H](O)[C@H]2O)[C@@H]1O [Galβ1–4GlcNAcβ1–6Galα-(2-naphthyl)] | <1% | <1% | 
[Cl][Mn][Cl] [Mn^2+, MnCl2] |  |  | reduction of C2GnT1 activity ([3]; 12.5 mM in the assay): 61%; reduction of C2GnT2 activity ([4]; 12.5 mM in the assay, core 1 or core 3 substrates): 83–85%; C1GalT activity with cofactor/additive ([1]; 12.5 mM metal ion or EDTA, Mn2+ taken as 100%): 100%; EC50 ([1]; read-out: MnCl2 concentration for half-maximal C1GalT activity): 250 µM
A-(GalNAcα)T |  | 15% | 
TE-(GlcNAcβ1–6GalNAcα)TTSHSTPG | <1% |  | C2GnT1 activity (%) [3, 5]: <1%; C2GnT2 activity (%) [4, 5]: <1%

— article PMC4002258 (Biochimica et biophysica acta, 2013)
